Assay results as given in patent US20230057984A1, “NORMALIZATION OF CULTURE OF CORNEAL ENDOTHELIAL CELLS” (KYOTO PREFECTURAL PUBLIC UNIVERSITY CORPORATION, priority 2011, published 2023).
Where two headings read alike, the source gives them in different places.

Assays:
[1] = tested on: corneal endothelial failure model (bullous keratopathy model); experiment: Transplantation of cultured human corneal endothelial cells to cynomolgus monkey bullous keratopathy model (Example 9); assay type: in vivo
Excerpt: Under general anesthesia, the peripheral portion of a cornea of a cynomolgus monkey is cut by 1.5 mm, and a silicon surgical instrument is inserted into an anterior chamber to mechanically currete a corneal endothelial cell, thus creating a bullous keratopathy model. Next, of human corneal endothelial cells cultured by the method according to the present invention ex vivo, 2.0×10^5 were suspended in a basal culture medium, and a ROCK inhibitor having an adhesion promoting effect, Y-27632, was added thereto such that the final concentration would be 100 μmol/l, followed by introduction into the anterior chamber. As a control, 2.0×10^5 human corneal endothelial cells, suspended in a basal culture medium, were introduced without a ROCK inhibitor. After introduction, the model was maintained with its head down for three hours so that the eyeball would be downwards, thus promoting cellular adhesion to the corneal endothelium surface. Therapeutic effects of bullous keratopathy by transplanting a cultured corneal endothelium sheet was evaluated by corneal transparency evaluation through a slit-lamp microscope, and corneal thickness measurement using a ultrasonic tachymeter (FIG. 14). […] Then, similar to Example 2, immunostaining was performed directed to phalloidin, Na^+/K^+-ATPase and ZO-1, followed by taking images using a fluorescence microscope (FIG. 15). […]

[2] = tested on: Human corneal endothelial cells; experiment: Culture of human corneal endothelial cells with SB203580 in conjunction with SB431542 (Example 7); assay type: cell-based; settings: HCEC
Experimental: Corneal endothelial cells were mechanically exfoliated together with basement membranes from research corneas purchased from the Seattle bank, followed by exfoliating from the basement membranes using collagenase for collection, and then primary culturing. […] In addition, culturing was performed using a base culture medium with SB431542 (1 μmol/l, TOCRIS, catalog number:1614) added thereto, with SB203580 (1 μmol/l, CALBIOCHEM, catalog number: 559389) added thereto, and with SB431542 (1 μmol/l) and SB203580 (1 μmol/l) added thereto.

[3] = tested on: Human corneal endothelial cells; settings: HCEC after subculturing
Experimental: Next, subculturing was performed with trypsin. Comparison was made between cells cultured in Opti-MEM I Reduced-Serum Medium, Liquid (INVITROGEN catalog number: 31985-070)+8% fetal bovine serum (FBS) (BIOWEST, catalog number: S1820-500)+[…] CaCl2.2H2O (SIGMA catalog number: C7902-500G)+0.08% chondroitin sulfuric acid (SIGMA catalog number: C9819-5G)+20 μg ascorbic acid (SIGMA catalog number: A4544-25G)+50 μg/ml gentamicin (INVITROGEN catalog number: 15710-064)+5 ng/ml EGF (INVITROGEN catalog number: PHG0311) as a normal culture medium, and cells cultured in the above-mentioned culture medium with Smad3 inhibitor (0.3 mM and 3 mM) added thereto.

[4] = tested on: monkey corneal endothelial cells; experiment: Addition of TGF-β to monkey corneal endothelial cells: cell form and immunostaining (Example 4); assay type: cell-based, cynomolgus monkey
[5] = tested on: monkey corneal endothelial cells; experiment: Addition of TGF-β to monkey corneal endothelial cells: Western blot of Na+/K+-ATPase and ZO-1 (Example 4); assay type: cell-based, cynomolgus monkey; settings: monkey CEC, TGF-β 0, 1, 3, 10, 30 ng/ml, concentration dependent
[6] = tested on: Smad2; experiment: Addition of TGF-β to monkey corneal endothelial cells: Western blot of pSmad2/Smad2 (Example 4); assay type: cell-based, cynomolgus monkey; settings: monkey CEC, TGF-β 0, 1, 10 ng/ml
[7] = tested on: Human corneal endothelial cells; experiment: Culture of human corneal endothelial cells with BMP-7: phase-contrast and phalloidin staining (Example 6); assay type: cell-based
Experimental: (§1) Next, by using three different concentrations, BMP7 was able to suppress the change in a HCEC to a fibroblast phenotype and to maintain the function thereof. […] Thus, this molecule is used to antagonize an EMT process [Zeisberg M, et al. (2003) Nat Med 9: 964-968], [Simic P, et al. (2007) EMBO Rep 8: 327-331], [Buijs J T, et al. (2007) Am J Pathol 171: 1047-1057], [Zeisberg M, et al. (2007) J Biol Chem 282: 23337-23347]. […] Fibroblast-like HCEC was treated with BMP-7 in the concentration ranging from 10 to 1,000 ng/ml.

[8] = tested on: Human corneal endothelial cells; experiment: Na+/K+-ATPase and ZO-1 staining of human corneal endothelial cells treated with BMP-7 (FIG. 10A C-F); assay type: cell-based
Experimental: For tissue staining examination, cultured MCECs or HCECs were put into Lab-Tek™ Chamber Slides™ (NUNC A/S, Roskilde, Denmark), fixed with 4% formaldehyde for 10 minutes at a room temperature (RT), and incubated for 30 minutes with 1% bovine serum albumin (BSA). Specifically, cultured MCECs or HCECs on the Lab-Tek™ Chamber Slides™ (NUNCA/S, Roskilde, Denmark) were fixed at a room temperature for 10 minutes in 4% formaldehyde, followed by incubation for 30 minutes together with 1% bovine serum albumin (BSA). In order to examine the phenotype of CEC, immunohistochemical analysis was directed to a protein associated with tight junction, ZO-1 (Zymed Laboratories, Inc., South San Francisco, Calif.), a protein associated with the pumping function, Na^+/K^+-ATPase (Upstate Biotec, Inc., Lake Placid, N.Y.), fibronectin (BD, Franklin Lakes, N.J.), and actine. As markers associated with the function of CEC, ZO-1 and Na^+/K^+-ATPase were used; fibronectin and type 1 collagen were used to evaluate the change in a fibroblastic manner; and staining of actine was used to evaluate the phenotype of the cells. Staining of ZO-1, Na^+/K^+-ATPase, type 1 collagen and fibronectin was each performed using 1:200 dilution of ZO-1 polyclonal antibody, Na^+/K^+-ATPase monoclonal antibody, and fibronectin monoclonal antibody. As to secondary antibody, 1:2000 dilution of Alexa Fluor (registered trademark) 488 label or Alexa Fluor (registered trademark) 594 label goat antimouse IgG (Life Technologies) was used. Staining of actine was performed using 1:400 dilution of Alexa Fluor (registered trademark) 488 label phalloidin (Life Technologies). Next, the nucleus of each cell was stained with DAPI (Vector Laboratories, Inc., Burlingame, Calif.) or PI (Sigma-Aldrich). Next, the slides were observed through a fluorescence microscope (TCS SP2 AOBS; Leica Microsystems, Welzlar, Germany).
as §1

[9] = tested on: HCEC
[10] = fibroblast-like HCEC, BMP-7 10 to 1,000 ng/ml
[11] = HCEC, three concentrations of BMP-7 vs additive-free control

C[C@@H](N)[C@H]1CC[C@H](C(=O)Nc2ccncc2)CC1.Cl.Cl.O (relative stereo) [Y-27632, (R)-(+)-trans-(4-pyridyl)-4-(1-aminoethyl)-cyclohexanecarboxamide 2 hydrochloride 1 hydrate] was tested, and the “therapeutic result: corneal transparency (slit-lamp microscope) and corneal thickness” value ([1]; 2.0×10^5 cultured human corneal endothelial cells into anterior chamber, with or without Y-27632 100 μmol/l) was “further improved” and the “therapeutic result: immunostaining of phalloidin, Na+/K+-ATPase and ZO-1 of extracted corneas” value ([1]; 2.5 months after introduction, cells alone or cells + ROCK inhibitor) was “further improved”.

With C[S+]([O-])c1ccc(-c2nc(-c3ccc(F)cc3)c(-c3ccncc3)[nH]2)cc1 (centres unmarked) [SB203580, 4-[4-(4-fluorophenyl)-2-(4-methylsulfinylphenyl)-1H-imidazole-5-yl]pyridine] the corneal endothelium density ([2]; SB203580 1 μmol/l added to SB431542 1 μmol/l) was “increased” and the culture normalization ([2]; SB203580 1 μmol/l in conjunction with SB431542 1 μmol/l, repeated subculturing) was “culture normalization was enhanced”.

With COc1cc2c(cc1OC)CN(C(=O)/C=C/c1c(-c3ccccc3)n(C)c3ncccc13)CC2 [Smad3 inhibitor, 6,7-dimethoxy-2-((2E)-3-(1-methyl-2-phenyl-1H-pyrrolo[2,3-b]pyridine-3-yl-prop-2-enoyl))-1,2,3,4-tetrahydroiso quinolone] the “cell form (phase-contrast microscope)” value ([3]; Smad3 inhibitor 0.3 mM vs normal culture medium) was “a layer of polygonal cells with high density were maintained” and the “cell form (phase-contrast microscope)” value ([3]; Smad3 inhibitor 3 mM vs normal culture medium) was “a layer of polygonal cells with high density were maintained”.

“TGF-β: transforming growth factor-β, R&D SYSTEMS catalog number 240-B, added to induce transformation” was tested, and the “cell form of normal phenotype after exposure to exogenous TGF-β” value ([4]; monkey CEC cultured to sub-confluency, TGF-β1 0, 1, 10 ng/mL) was “transformed into a fibroblast-like cell”, the “staining patterns of Na+/K+-ATPase and ZO-1 in plasma membranes” value ([4]; monkey CEC normal phenotype exposed to TGF-β) was “completely lost” and the “expression of Na+/K+-ATPase and ZO-1 at the protein level (Western blot)” value [5] was “significantly decreased”. The “phosphorylation of Smad2 (Western blot)” value [6] was “greatly increased in the concentration dependent form”.

B1: BMP-7: bone morphogenic protein 7, anti-EMT factor, R&D SYSTEMS catalog number 354-BP (protein, UniProt P18075 293-431, looked up)
Bone morphogenetic protein 7: STGSKQRSQNRSKTPKNQEALRMANVAENSSSDQRQACKKHELYVSFRDLGWQDWIIAPEGYAAYYCEGECAFPLNSYMNATNHAIVQTLVHFINPETVPKPCCAPTQLNAISVLYFDDSSNVILKKYRNMVVRACGCH
With B1 the “cell form (phalloidin staining and phase-contrast microscope)” value ([7]; HCEC subcultured in conditioned culture medium with BMP-7 100 ng/ml, control transformed, multi-layered) was “the form of a layer of polygonal cells was maintained”, the “cell form and actine cytoskeleton distribution (phalloidin staining)” value [7, 10] was “allowed for a normal hexagonal cell form, and allowed for cytoskeleton distribution on the cell surface of actine” and the “elongated cell form of fibroblast phenotype (phase-contrast)” value ([7]; fibroblast-like HCEC, BMP-7 10 to 1,000 ng/ml, concentration-dependent manner) was “converted into a polygonal cell form”. For the same molecule, the “maintaining CEC in polygonal form and contact inhibition phenotype with positive expression of function-associated marker” value ([8]; HCEC, BMP-7 10 ng/ml) was “tendency was seen”, the “maintaining CEC in polygonal form and contact inhibition phenotype with positive expression of function-associated marker” value ([8]; HCEC, BMP-7 100 ng/ml) was “tendency increased” and the “maintaining CEC in polygonal form and contact inhibition phenotype with positive expression of function-associated marker” value ([8]; HCEC, BMP-7 1,000 ng/ml) was “tendency was more significant”. For the same molecule, the “percentage of Na+/K+-ATPase positive cell” value [8, 11] was “significantly increased”, the “percentage of ZO-1 positive cell” value [8, 11] was “significantly increased” and the “intracellular localization of Na+/K+-ATPase and ZO-1” value [8, 10] was “maintained the intracellular localization of Na^+/K^+-ATPase and ZO-1 in a cell membrane”. The “harmful effects with regard to the forms or functions” value [9] was “not seen any clear, harmful effects”.
